Patent publication EP1655608A1, “CFTR as a component of an autophagy signaling pathway, applications thereof to autophagic diseases, and determination of cystic fibrosis as an autophagic disease” (priority 2004, dated 2006)
“Also recorded” adds a separate entry of the source.

Legend:
CFTR Δex10 = experiment: Whole-cell patch-clamp Cl- currents in renal proximal PCT cells; format: cell-based, mouse
Method: Whole cell currents were monitored from Sertoli cells, CFTR^-/- and WT renal epithelial cells with an RK 400 amplifier (Biologic, Münster, Germany) as previously described (40). The bath (extracellular) solution consisted of 140 mM NMDGCl (N-methyl-D-glucamine chloride), 5 mM D-Glucose, 1 mM CaCl2, and 10 mM HEPES, pH 7.4. Patch pipette (intracellular) solution contained 140 mM NMDGCl, 5 mM D-Glucose, 5 mM EGTA, 5 mM MgATP, and 10 mM HEPES, pH 7.4. Osmolarity of both solutions was adjusted to 280 mOSM by adding mannitol. These solutions were designed to study Cl^- currents because Cl^- is the sole permeant ion in these conditions and to prevent Ca^2+ activated Cl^- currents by the addition of EGTA in the patch solution. After establishment of whole cell configuration, cells were stimulated by the addition of Lindane (50 µM), FSK (10 µM), vehicle (Me2S0 or ethanol) in the absence or the presence of NPPB (0.1mM), DIDS (4,4'-diisothiocyanatostilbene-2,2'-disulfonic acid, 1 mM, Sigma), glibenclamide (0.1mM, Sigma) or PD98059 (10 µM) in the bath solution. The cell membrane potential was clamped at -50mV and 400 ms pulses were applied from -100 to +120 mV with increments of 20 mV every 2 s. To generate whole cell current-voltage (I-V) relationship, membrane currents resulting from voltage stimuli were recorded for at least 3 min and analysed using an IBM-AT-compatible computer equipped with Digidata 1200 interface (Axon Instruments) and pCLAMP software (versions 5.51 and 6.0, Axon Instruments), respectively. Statistics-Results are expressed as mean ± S.E. of n observations using the Student's t test.

p42^ERK2 and p44^ERK1 = experiment: ERK activation by anti-phospho-ERK Western blotting of cell lysates; format: cell-based, mouse
Description: After stripping, equal loadings of proteins were verified by reprobing the blots with anti-ERK1 (Santa Cruz Biotechnology).

PKA = experiment: CREB phosphorylation as readout of PKA activity; format: cell-based
Description: The emerging issue is therefore how Lindane could activate CFTR Cl^- currents. One possibility would be that Lindane directly activates CFTR, but this appears unlikely because it required minutes instead of seconds to increase Cl^- conductance. […] To further explore this hypothesis, we tested the effect of Lindane on the renal proximal cell line (PCT1). […] Of particular interest, we provide several lines of evidence that the CFTR Δex10 channels remained functional in response to Lindane in PCT cells. […] These finding provide the first evidence that an agonist, e.g. Lindane, could activate CFTR Cl- current independently of PKA, raising the promise for new strategies using Lindane to restore Cl-conductance in cystic fibrosis patients with CFTR variants on PKA sites.

renal cells = experiment: Lindane-induced autophagic vacuolation of renal cells (electron microscopy); format: cell-based, mouse
Method: To address the importance of CFTR in autophagy, renal cells derived from distal tubules or the proximal convoluted tubules of Wild type (WT or CFTR^+/+) or CFTR deficient (CFTR^-/-) mice (40) were isolated and immortalized with the pSV3 neo vector, as described below (55).
The ultrastructural changes caused by Lindane or starvation in Sertoli and renal cells were analysed by transmission electron microscopy, as previously described (57). Briefly, control and Lindane-treated cells (50 µM, 24 h) were scraped from the culture dish in PBS EDTA 1mM, pelleted and fixed with ice-cold 2.5% glutaraldehyde (TAAB, #G004) in 0.1 M Na cacodylate, pH 7.4 for at least 1 h at 4°C. Cell pellets were then rinsed in cacodylate buffer, postfixed in 1% OsO4 for 1 h at 4°C, dehydrated through graded ethanol washes, and embedded in epoxy resin. Oriented […] sections were obtained with diamond knives, and representative areas were chosen for ultra-thin sectioning. Thin […] sections were mounted on copper mesh grids, stained with uranyl acetate and lead citrate, and examined on a JEOL 1200 EXII electron microscope. 30-50 micrographs were taken randomly from each sample at primary magnification × 10,000.

Cl[C@H]1[C@H](Cl)[C@@H](Cl)[C@@H](Cl)[C@H](Cl)[C@H]1Cl [Lindane, γ-hexachlorocyclohexane]
induction of Cl- current in PCT cells (CFTR Δex10; CFTR^+/+ PCT cells, Lindane 50 µM, forskolin 10 µM): induced a Cl- current
Lindane-induced Cl- current in CFTR^-/- PCT cells (CFTR Δex10; CFTR^-/- PCT cells): total inhibition
anion selectivity sequence of induced current (CFTR Δex10; PCT cells): Br^-≥ Cl^- >>I^-
reversal potential of induced current (CFTR Δex10; PCT cells): ~ 0 mV
ERK stimulation in CFTR^-/- cells (p42^ERK2 and p44^ERK1; CFTR^-/- renal cells): still stimulated
duration of ERK activation (p42^ERK2 and p44^ERK1; Sertoli cells, Lindane): more than 24 h
ERK activation in Sertoli cells (p42^ERK2 and p44^ERK1; Sertoli cells, Lindane 50 µM, DDT 1.8 µM, Bϕ 90 µM, PCP 15 µM): rapid and sustained activation of both p42^ERK2 and p44^ERK1; also recorded: induced the activation of both p42^ERK2 and p44^ERK1
CREB phosphorylation (PKA; Lindane treatment): dramatic phosphorylation of CREB
PKA activation (PKA; concluded from H89 experiment): did not activate PKA
autophagic vacuolation in CFTR-expressing renal cells (renal cells; CFTR^+/+ renal cells): could be generalized to renal cells, provided CFTR was expressed
response in renal cells lacking CFTR expression (renal cells; CFTR^-/- renal cells): dramatic accumulation of lamellar structures and little if any large autophagic vacuoles
